From patent US20210179578A1, “OX1 ANTAGONISTS” (Heptares Therapeutics Limited, priority 2017, published 2021) come the findings set out here.

The assay concerns the target T1, human OX2 receptor (Homo sapiens, UniProt O43614).
T1 sequence (O43614 1-444): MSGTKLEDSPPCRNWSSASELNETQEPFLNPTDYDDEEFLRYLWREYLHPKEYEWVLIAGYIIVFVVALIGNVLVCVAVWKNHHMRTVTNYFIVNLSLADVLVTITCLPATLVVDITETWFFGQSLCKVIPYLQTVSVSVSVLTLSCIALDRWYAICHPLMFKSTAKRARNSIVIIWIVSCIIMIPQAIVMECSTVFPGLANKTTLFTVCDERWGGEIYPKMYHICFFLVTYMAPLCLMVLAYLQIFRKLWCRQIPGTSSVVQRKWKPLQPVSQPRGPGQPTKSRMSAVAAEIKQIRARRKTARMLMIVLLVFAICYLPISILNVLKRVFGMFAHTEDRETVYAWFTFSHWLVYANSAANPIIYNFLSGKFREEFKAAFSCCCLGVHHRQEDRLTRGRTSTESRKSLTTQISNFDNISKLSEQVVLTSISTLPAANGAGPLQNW
In words: [3H]-radioligand binding assay, OX2. Further details: made in house; host or cells: SF21 insect cells (baculovirus; P0 virus made in SF9). Conditions: [3H]-radioligand binding, human OX2 membranes; read-out: pKi average OX2 (converted). The source says:
Cloning, Baculovirus generation, large-scale infection of SF21 cells and membrane preparation. Human OX1 or OX2 receptor were cloned into Invitrogen's (ThermoFisher Scientific, UK) Bac-to-Bac Baculovirus Expression System. P0 baculovirus was generated by transfecting SF9 cells with bacmid DNA using Cellfectin® II transfection reagent (ThermoFisher Scientific, UK, Catalog number 10362-100). Following P0 generation P1 virus was then generated ready for large scale infection and membrane preparation. SF21 cells were grown in expression medium ESF921 (Expression Systems, USA, catalog number 96-001-01) supplemented with 10% heat-inactivated FBS and 1% Pen/Strep and were infected at a cell density of 2.5×10^6 cells/mL and a multiplicity of infection of 1.0 for both human OX1R and OX2R. Incubation was carried out at over 48 h in a shaking incubator set at 27° C. The cell culture was then centrifuged at 2,500 rcf for 10 min at 4° C. The pellets were resuspended in cold PBS supplemented with Roche's Complete EDTA-free protease inhibitor cocktail tablets (Roche Applied Sciences, catalog number 05056489001), 1 mM PMSF and 1 mM EDTA. The resuspended cell paste was then centrifuged at 3,273 rcf for 12 min at 4° C. The supernatant was discarded and the pellet frozen at −80° C. The cell pellet from a 4 L culture was resuspended in buffer containing 50 mM HEPES pH 7.5, 150 mM NaCl, 8 Roche EDTA-Free protease inhibitor cocktail tablets and 1 mM PMSF. The suspension was left stirring at rt for 1 h and then homogenised for 90 s at 9,500 rpm using a VDI 25 (VWR, USA) homogeniser. The cells were then lysed using a Microfluidiser processor M-110L Pneumatic (Microfluidics, USA) at 60 PSI and membranes collected by ultracentrifugation at 204.7 k×g for 1 h. The supernatant was discarded and the pellet was resuspended and homogenised in 90 s at 9,500 rpm in 50 mL (25 mL for each 2 L culture) of buffer containing 50 mM Hepes pH 7.5, 150 mM NaCl, 3 Roche EDTA-free protease inhibitor cocktail tablets and 1 mM PMSF. The resulting membranes were then stored at −80° C.
[^3H]-radioligand binding assay. After thawing, membrane homogenates were resuspended in the binding buffer (8.5 mM HEPES, pH 7.4, 1.3 mM CaCl2, 1.2 mM MgSO4, 118 mM NaCl, 4.7 mM KCl, 4 mM NaHCO3, 1.2 mM KH2PO4, 11 mM glucose) to a final assay concentration of 6.4 μg (OX1) or 1.4 μg (OX2) protein per well. Saturation isotherms were determined by the addition of various concentrations (0-30 nM) of [^3H]-4-(2,6-difluoro-4-methoxybenzyl)-2-(5,6-dimethoxypyridin-3-yl)-2H-1,2,4-benzothiadiazin-3(4H)-one 1,1-dioxide (Christopher et al, MedChemComm., 2015, 6, 947-955) in a total reaction volume of 250 μL for 90 min at rt. At the end of the incubation, membranes were filtered onto a 96-well GF/B filter pre-incubated with 0.5% polyethylenimine, with a Tomtec cell harvester and washed 5 times with 0.5 mL distilled water. Non-specific binding (NSB) was measured in the presence of 3.33 μM [4-(5-chloro-1,3-benzoxazol-2-yl)-7-methyl-1,4-diazepan-1-yl][5-methyl-2-(2H-1,2,3-triazol-2-yl)phenyl]methanone (Wertz et al, Angew. Chem. Int. Ed., 2011, 50, 11511-11515). Radioactivity on the filter was counted (1 min) on a Microbeta radiometric plate counter (Perkin Elmer) after addition of 50 μL of scintillation fluid (LabLogic: Part #SG-BXX-14). […] IC50 values were derived from the inhibition curve and the equilibrium dissociation constant (Ki) values were calculated using the Cheng-Prusoff equation.
In the case of `COc1ncc(C2CCc3c(F)cccc3N(Cc3c(F)cc(Br)cc3F)C2=O)cc1S(C)(=O)=O` (racemic) [Example 19, 1-(4-bromo-2,6-difluorobenzyl)-6-fluoro-3-[6-methoxy-5-(methylsulfonyl)pyridin-3-yl]-1,3,4,5-tetrahydro-2H-1-benzazepin-2-one], the Ki is over 251 nM.
For the molecule `COc1ncc(C2CCc3c(F)cccc3N(Cc3c(F)cc(Br)cc3F)C2=O)cc1C(C)(F)F` (single isomer, unassigned) [Example 12, 1-(4-bromo-2,6-difluorobenzyl)-3-[5-(1,1-difluoroethyl)-6-methoxypyridin-3-yl]-6-fluoro-1,3,4,5-tetrahydro-2H-1-benzazepin-2-one], the Ki is over 398 nM.
`COc1ncc(C2CCc3c(F)cccc3N(Cc3cc(C#N)ccc3F)C2=O)cc1C(C)(F)F` (single isomer, unassigned) [Example 13, 3-({3-[5-(1,1-difluoroethyl)-6-methoxypyridin-3-yl]-6-fluoro-2-oxo-2,3,4,5-tetrahydro-1H-1-benzazepin-1-yl}methyl)-4-fluorobenzonitrile]: the Ki is over 158 nM.
Next, `COc1ncc(C2CCc3c(F)cccc3N(Cc3c(F)cc(Cl)cc3F)C2=O)cc1S(C)(=O)=O` (single isomer, unassigned) [Example 22, 1-(4-chloro-2,6-difluorobenzyl)-6-fluoro-3-[6-methoxy-5-(methylsulfonyl)pyridin-3-yl]-1,3,4,5-tetrahydro-2H-1-benzazepin-2-one]: over 631 nM.
Consider `Cc1ncc(C2CCc3c(F)cccc3N(Cc3c(F)cc(Br)cc3F)C2=O)cc1C(C)(F)F` (single isomer, unassigned) [Example 35, 1-(4-bromo-2,6-difluorobenzyl)-3-[5-(1,1-difluoroethyl)-6-methylpyridin-3-yl]-6-fluoro-1,3,4,5-tetrahydro-2H-1-benzazepin-2-one], for which the Ki was over 126 nM.
For `Cc1ncc(C2CCc3c(F)cccc3N(Cc3c(F)cc(Br)cc3F)C2=O)cc1C(C)(F)F` (single isomer, unassigned) [Example 36, 1-(4-bromo-2,6-difluorobenzyl)-3-[5-(1,1-difluoroethyl)-6-methylpyridin-3-yl]-6-fluoro-1,3,4,5-tetrahydro-2H-1-benzazepin-2-one] the value was 200 nM; for `Cc1ncc(C2CCc3c(F)cccc3N(Cc3c(F)cc(Br)cc3F)C2=O)cc1S(C)(=O)=O` (single isomer, unassigned) [Example 38, 1-(4-bromo-2,6-difluorobenzyl)-6-fluoro-3-[6-methyl-5-(methylsulfonyl)pyridin-3-yl]-1,3,4,5-tetrahydro-2H-1-benzazepin-2-one], over 316 nM.
For `Cc1ncc(C2CCc3c(F)cccc3N(Cc3c(F)cc(Br)cc3F)C2=O)cc1S(C)(=O)=O` (single isomer, unassigned) [Example 39, 1-(4-bromo-2,6-difluorobenzyl)-6-fluoro-3-[6-methyl-5-(methylsulfonyl)pyridin-3-yl]-1,3,4,5-tetrahydro-2H-1-benzazepin-2-one] the value was over 501 nM; for `Cc1ccc(N2CCc3c(F)cccc3N(Cc3c(F)cc(Br)cc3F)C2=O)cc1C(C)(F)F` [Example 1, 1-(4-bromo-2,6-difluorobenzyl)-3-[3-(1,1-difluoroethyl)-4-methylphenyl]-6-fluoro-1,3,4,5-tetrahydro-2H-1,3-benzodiazepin-2-one], 200 nM.
With `COc1ncc(N2CCc3c(F)cccc3N(Cc3c(F)cc(Br)cc3F)C2=O)cc1C(C)(F)F` [Example 3, 1-(4-bromo-2,6-difluorobenzyl)-3-[5-(1,1-difluoroethyl)-6-methoxypyridin-3-yl]-6-fluoro-1,3,4,5-tetrahydro-2H-1,3-benzodiazepin-2-one], the Ki is over 79.4 nM.
For `COc1ccc(CN2C(=O)N(c3cnc(OC)c(C(C)(F)F)c3)CCc3c(F)cccc32)c(F)c1` [Example 4, 3-[5-(1,1-difluoroethyl)-6-methoxypyridin-3-yl]-6-fluoro-1-(2-fluoro-4-methoxybenzyl)-1,3,4,5-tetrahydro-2H-1,3-benzodiazepin-2-one] the value was 63.1 nM; for `[2H]C([2H])([2H])Oc1cc(F)c(CN2C(=O)N(c3cnc(OC)c(C(C)(F)F)c3)CCc3c(F)cccc32)c(F)c1` [Example 6, 3-[5-(1,1-difluoroethyl)-6-methoxypyridin-3-yl]-1-{2,6-difluoro-4-[(^2H3)methyloxy]benzyl}-6-fluoro-1,3,4,5-tetrahydro-2H-1,3-benzodiazepin-2-one], 100 nM; for `COc1ncc(N2CCc3c(F)cccc3N(Cc3ccc(Br)cc3F)C2=O)cc1C(C)(F)F` [Example 10, 1-(4-bromo-2-fluorobenzyl)-3-[5-(1,1-difluoroethyl)-6-methoxypyridin-3-yl]-6-fluoro-1,3,4,5-tetrahydro-2H-1,3-benzodiazepin-2-one], over 251 nM.
For `COc1ncc(N2CCc3c(F)cccc3N(Cc3c(F)cc(Br)cc3F)C2=O)cc1S(C)(=O)=O` [Example 14, 1-(4-bromo-2,6-difluorobenzyl)-6-fluoro-3-[6-methoxy-5-(methylsulfonyl)pyridin-3-yl]-1,3,4,5-tetrahydro-2H-1,3-benzodiazepin-2-one] the value was over 251 nM; for `COc1cc(F)c(CN2C(=O)N(c3cnc(OC)c(S(C)(=O)=O)c3)CCc3c(F)cccc32)c(F)c1F` [Example 15, 6-fluoro-3-[6-methoxy-5-(methylsulfonyl)pyridin-3-yl]-1-(2,3,6-trifluoro-4-methoxybenzyl)-1,3,4,5-tetrahydro-2H-1,3-benzodiazepin-2-one], over 251 nM; for `COc1nc(OC)c(C(C)(F)F)cc1N1CCc2c(F)cccc2N(Cc2c(F)cc(Br)cc2F)C1=O` [Example 23, 1-(4-bromo-2,6-difluorobenzyl)-3-[5-(1,1-difluoroethyl)-2,6-dimethoxypyridin-3-yl]-6-fluoro-1,3,4,5-tetrahydro-2H-1,3-benzodiazepin-2-one], over 126 nM.
Next, `COCc1cc(F)c(CN2C(=O)N(c3cc(C(C)(F)F)c(OC)nc3OC)CCc3c(F)cccc32)c(F)c1` [Example 24, 3-[5-(1,1-difluoroethyl)-2,6-dimethoxypyridin-3-yl]-1-[2,6-difluoro-4-(methoxymethyl)benzyl]-6-fluoro-1,3,4,5-tetrahydro-2H-1,3-benzodiazepin-2-one]: over 158 nM.
Regarding `COc1cc(F)c(CN2C(=O)N(c3cc(S(C)(=O)=O)c(OC)nc3OC)CCc3c(F)cccc32)c(F)c1` [Example 25, 1-(2,6-difluoro-4-methoxybenzyl)-3-[2,6-dimethoxy-5-(methylsulfonyl)pyridin-3-yl]-6-fluoro-1,3,4,5-tetrahydro-2H-1,3-benzodiazepin-2-one], the Ki was over 126 nM.
